Patent US20240366648A1, “NAD-AUGMENTATION THERAPY FOR PARKINSON'S DISEASE” (Vestlandets Innovasjonsselskap AS (VIS), priority 2021, published 2024)

Experiments:
[1] = test system: patients with PD; test: Safety, adverse events and compliance, phase I trial; format: in vivo
Description: Thirty PD patients were randomly assigned (Block size 6, allocation 1:1) to 500 mg NR, provided in the form of nicotinamide riboside chloride (Niagen® from Chromadex), or placebo twice per day, 12 hours apart, using the electronic Case Report Form (Viedoc.com). The drug containers were sequentially marked by an independent third party. The NR (Niagen®) and placebo were provided by ChromaDex, USA. Each NR capsule contained 250 mg of NR. Placebo capsules contained microcrystalline cellulose. The vials and capsules containing NR and placebo were identical in shape, colour, and smell. Study drug compliance was calculated from counting returned number of study capsules and self-reporting. Participants, examining physicians, medical- and research personnel were blinded for the duration of the trial. Sample size was determined by comparing previous literature with respect to the primary objective.
At screening for trial entry, candidates underwent physical and neurological examination, brain MRI, and DaTscan. Eligible patients who entered the trial were assessed at baseline (visit 1, V1) and after four weeks of exposure to either NR or placebo (visit 2, V2). At both visits, patients underwent physical and neurological examination, including assessment by the Movement Disorder Society Unified Parkinson's Disease Rating Scale section I-IV (MDS-UPDRS), and biological sampling. MR-PET was performed within one week prior to visit 1, and at visit 2. All participants remained naïve for antiparkinson drugs for the duration of the trial. All clinical assessments were performed by a blinded movement disorders expert. Each patient was examined by the same neurologist at both visits. Methodological details on each procedure are provided below. Safety was monitored through routine clinical blood tests and registration of adverse events. Adverse events (AE) were recorded and scored by the investigative physician. Severity was scored according to severity grading defined by Common Terminology Criteria for Adverse Events v5.0 (CTCAE) as (1) mild, (2) moderate, (3) severe, (4) life-threatening or (5) death. The AE relation to the study drug was scored as (1) unrelated, (2) unlikely, (3) possible, (4) probable or (5) definitely.

[2] = test system: gene expression in muscle; test: RNA-seq differential gene expression in muscle tissue; format: in vivo, human; conditions: NR vs placebo
Description: For all subjects at both visits, total RNA was extracted from muscle biopsy tissue and PBMC homogenate using RNeasy plus mini kit (Qiagen) with on-column DNase treatment according to manufacturer's protocol. The final elution was made in 45 ul of dH2O. The concentration and integrity of the total RNA were estimated by Ribogreen assay (Thermo Fisher Scientific), and Fragment Analyzer (Advanced Analytical), respectively, and 10 ng of total RNA was used for downstream RNA-seq applications using the SMARTer Stranded Total RNA-Seq Kit v2-Pico Input Mammalian Kit (IlluminaTakara Bio USA, Inc., Mountian View, CA) as per manufacturer's recommended protocol. Library quantity was assessed by Picogreen Assay (Thermo Fisher Scientific), and the library quality was estimated by utilizing a DNA High Sense chip on a Caliper Gx (Perkin Elmer). Accurate quantification of the final libraries for sequencing applications was determined using the qPCR-based KAPA Biosystems Library Quantification kit (Kapa Biosystems, Inc.). Each library pooled equimolar prior to clustering. One hundred bp paired-end sequencing was performed on an Illumina NovaSeq S4 sequencer (Illumina, Inc.). Two subjects were discarded from the PBMC samples and two from the muscle samples due to either insufficient tissue quantity, participant drop out/lack of sample, or being outliers in expression. […] FASTQ files were assessed using […] version 0.11.9. Quantification at the transcript level was calculated using Salmon version 1.3.0 with fragment-level GC bias correction against the GENCODE version 35, with the whole genome as decoy sequence. Transcript-level quantification was collapsed onto gene-level using the tximport R package version 1.8.0. Genes in non-canonical chromosomes and scaffolds and transcripts encoded by the mitochondrial genome were filtered out, together with non-protein-coding genes. Low-expressed genes were likewise removed from downstream analyses (expression below 10 reads for 75% of the samples). PBMC and muscle datasets were analysed independently. For PBMC samples, cell type composition was assessed employing ABIS. Differential gene expression was performed using the DESeq2 R package version 1.22.2. The generalized linear model formula accounted for both interindividual variability between subjects and the normal course of the experiment (baseline for each subject and baseline for the time-course). Multiple hypothesis testing was performed with the default automatic filtering of DESeq2 followed by false discovery rate (FDR) calculation by the Benjamini-Hochberg procedure.

NC(=O)c1ccc[n+]([C@@H]2O[C@H](CO)[C@@H](O)[C@H]2O)c1 [NR, nicotinamide riboside]
CTCAE Grading: Upper Respiratory infection ([1]; 1 event, NR group): Grade 1 (1) | Adverse events (n): Anorexia ([1]; human, in vivo, 4 weeks): 1 | Adverse events (n): Cholelithiasis ([1]; human, in vivo, 4 weeks): 1 | Adverse events (n): Fatigue ([1]; human, in vivo, 4 weeks): 1 | Adverse events (n): Headache ([1]; human, in vivo, 4 weeks): 3 | Adverse events (n): Hematoma (leg) ([1]; human, in vivo, 4 weeks): 2 | Adverse events (n): Inguinal hernia ([1]; human, in vivo, 4 weeks): 1 | Adverse events (n): Leg Pain ([1]; human, in vivo, 4 weeks): 1 | Adverse events (n): Nausea ([1]; human, in vivo, 4 weeks): 1 | Adverse events (n): Upper Respiratory infection ([1]; human, in vivo, 4 weeks): 1 | CTCAE Grading: Anorexia ([1]; human, in vivo, 4 weeks): Grade 1 (1) | CTCAE Grading: Cholelithiasis ([1]; human, in vivo, 4 weeks): Grade 1 (1) | CTCAE Grading: Fatigue ([1]; human, in vivo, 4 weeks): Grade 1 (1) | CTCAE Grading: Headache ([1]; human, in vivo, 4 weeks): Grade 1 (4) | CTCAE Grading: Inguinal hernia ([1]; human, in vivo, 4 weeks): Grade 1 (1) | CTCAE Grading: Leg Pain ([1]; human, in vivo, 4 weeks): Grade 1 (1) | CTCAE Grading: Nausea ([1]; human, in vivo, 4 weeks): Grade 1 (1) | Causal Relationship to Study Drug: Anorexia ([1]; human, in vivo, 4 weeks): Unlikely (1) | Causal Relationship to Study Drug: Cholelithiasis ([1]; human, in vivo, 4 weeks): Unrelated (1) | Causal Relationship to Study Drug: Fatigue ([1]; human, in vivo, 4 weeks): Unlikely (1) | Causal Relationship to Study Drug: Hematoma (leg) ([1]; human, in vivo, 4 weeks): Unrelated (2) | Causal Relationship to Study Drug: Inguinal hernia ([1]; human, in vivo, 4 weeks): Unrelated (1) | Causal Relationship to Study Drug: Leg Pain ([1]; human, in vivo, 4 weeks): Unrelated (1) | Causal Relationship to Study Drug: Nausea ([1]; human, in vivo, 4 weeks): Unlikely (1) | Causal Relationship to Study Drug: Upper Respiratory infection ([1]; human, in vivo, 4 weeks): Unlikely (1) | severity and relatedness of reported adverse events ([1]; in vivo): minor and considered to be unrelated to NR | subjects reporting adverse events ([1]; in vivo): Seven | KLF2 expression in muscle [2]: substantial upregulation | expression of PARP15, AMT, FARS2, TMEM242 in muscle [2]: upregulation | gene set enrichment in muscle: proteasomal function, RNA transport and stability [2]: upregulation | number of differentially expressed genes in muscle tissue ([2]; between visit differences, FDR<0.05): 58 genes
